Assay results reported in the supplement of paper PMC10307832.

Experiments:
Test in all cases: relative viability (nuclei count vs DMSO), 5 days (fraction); higher = more cells survive
BEN = test system: BEN
Summary of the method: (§1)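 Lung cancer cell lines were pin-tool dosed in 1536-well plates on the day after seeding, with either a lone drug or a fixed anchor-drug dose plus five library-drug doses (not always all listed) in √10 steps. Nuclei were counted on 4× images after 5 days. Relative viability is the ratio of treated-well to vehicle-well nuclei counts, with each value a median of duplicate plates.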

ChaGo-K-1 = test system: ChaGo-K-1
Summary of the method: as §1

HCC-78 = test system: HCC-78
Summary of the method: as §1

LC-2-ad = test system: LC-2-ad
Summary of the method: as §1

LCLC-97TM1 = test system: LCLC-97TM1
Summary of the method: as §1

LK-2 = test system: LK-2
Summary of the method: as §1

LU99A = test system: LU99A
Summary of the method: as §1

LXF-289 = test system: LXF-289
Summary of the method: as §1

NCI-H1355 = test system: NCI-H1355
Summary of the method: as §1

NCI-H1651 = test system: NCI-H1651
Summary of the method: as §1

NCI-H1666 = test system: NCI-H1666
Summary of the method: as §1

NCI-H1944 = test system: NCI-H1944
Summary of the method: as §1

NCI-H1975 = test system: NCI-H1975
Summary of the method: as §1

NCI-H2087 = test system: NCI-H2087
Summary of the method: as §1

NCI-H358 = test system: NCI-H358
Summary of the method: as §1

NCI-H596 = test system: NCI-H596
Summary of the method: as §1

NCI-H650 = test system: NCI-H650
Summary of the method: as §1

NCI-H661 = test system: NCI-H661
Summary of the method: as §1

NCI-H838 = test system: NCI-H838
Summary of the method: as §1

PC-3 [JPC-3] = test system: PC-3 [JPC-3]
Summary of the method: as §1

SK-MES-1 = test system: SK-MES-1
Summary of the method: as §1

Q: With CC(=O)O[C@@]12CO[C@@H]1C[C@H](O)[C@@]1(C)C(=O)[C@H](O)C3=C(C)[C@@H](OC(=O)[C@H](O)[C@@H](NC(=O)OC(C)(C)C)c4ccccc4)C[C@@](O)([C@@H](OC(=O)c4ccccc4)[C@H]21)C3(C)C [Docetaxel] + CS(=O)(=O)N1CCN(Cc2cc3nc(-c4cccc5[nH]ncc45)nc(N4CCOCC4)c3s2)CC1 [Pictilisib] (partner 1 µM) as the molecule, how does the relative viability (BEN; first compound 0.0002 µM) read?
A: 0.479

Q: What about the relative viability (BEN; first compound 0.000632 µM) of the same molecule?
A: 0.504

Q: And the relative viability (BEN; first compound 0.006325 µM)?
A: 0.23

Q: And the relative viability (BEN; first compound 0.02 µM)?
A: 0.169

Q: And the relative viability (ChaGo-K-1; first compound 0.0002 µM)?
A: 0.771

Q: What about the relative viability (ChaGo-K-1; first compound 0.000632 µM) of the same molecule?
A: 0.421

Q: And the relative viability (ChaGo-K-1; first compound 0.002 µM)?
A: 0.44

Q: What about the relative viability (ChaGo-K-1; first compound 0.006325 µM) of the same molecule?
A: 0.354

Q: What about the relative viability (ChaGo-K-1; first compound 0.02 µM) of the same molecule?
A: 0.201

Q: And the relative viability (HCC-78; first compound 0.0002 µM)?
A: 0.204

Q: And the relative viability (HCC-78; first compound 0.000632 µM)?
A: 0.185

Q: What about the relative viability (HCC-78; first compound 0.002 µM) of the same molecule?
A: 0.172

Q: What about the relative viability (HCC-78; first compound 0.006325 µM) of the same molecule?
A: 0.166

Q: And the relative viability (HCC-78; first compound 0.02 µM)?
A: 0.204

Q: What about the relative viability (LC-2-ad; first compound 0.0002 µM) of the same molecule?
A: 0.29

Q: What about the relative viability (LC-2-ad; first compound 0.002 µM) of the same molecule?
A: 0.106

Q: What about the relative viability (LC-2-ad; first compound 0.006325 µM) of the same molecule?
A: 0.113

Q: What about the relative viability (LC-2-ad; first compound 0.02 µM) of the same molecule?
A: 0.0847

Q: And the relative viability (LCLC-97TM1; first compound 0.000632 µM)?
A: 0.206

Q: What about the relative viability (LCLC-97TM1; first compound 0.002 µM) of the same molecule?
A: 0.113

Q: And the relative viability (LCLC-97TM1; first compound 0.006325 µM)?
A: 0.112

Q: What about the relative viability (LCLC-97TM1; first compound 0.02 µM) of the same molecule?
A: 0.102

Q: What about the relative viability (LK-2; first compound 0.0002 µM) of the same molecule?
A: 0.496

Q: And the relative viability (LK-2; first compound 0.000632 µM)?
A: 0.404

Q: What about the relative viability (LK-2; first compound 0.002 µM) of the same molecule?
A: 0.216

Q: And the relative viability (LK-2; first compound 0.006325 µM)?
A: 0.25

Q: And the relative viability (LK-2; first compound 0.02 µM)?
A: 0.203

Q: What about the relative viability (LU99A; first compound 0.0002 µM) of the same molecule?
A: 0.337

Q: What about the relative viability (LU99A; first compound 0.000632 µM) of the same molecule?
A: 0.249

Q: What about the relative viability (LU99A; first compound 0.002 µM) of the same molecule?
A: 0.267

Q: What about the relative viability (LU99A; first compound 0.006325 µM) of the same molecule?
A: 0.191

Q: What about the relative viability (LU99A; first compound 0.02 µM) of the same molecule?
A: 0.148

Q: What about the relative viability (LXF-289; first compound 0.0002 µM) of the same molecule?
A: 0.815

Q: And the relative viability (LXF-289; first compound 0.000632 µM)?
A: 0.653

Q: And the relative viability (LXF-289; first compound 0.002 µM)?
A: 0.212

Q: And the relative viability (LXF-289; first compound 0.006325 µM)?
A: 0.114

Q: And the relative viability (LXF-289; first compound 0.02 µM)?
A: 0.0576

Q: And the relative viability (NCI-H1355; first compound 0.0002 µM)?
A: 0.479

Q: And the relative viability (NCI-H1355; first compound 0.000632 µM)?
A: 0.426

Q: And the relative viability (NCI-H1355; first compound 0.002 µM)?
A: 0.256

Q: And the relative viability (NCI-H1355; first compound 0.006325 µM)?
A: 0.224

Q: And the relative viability (NCI-H1355; first compound 0.02 µM)?
A: 0.179

Q: What about the relative viability (NCI-H1651; first compound 0.0002 µM) of the same molecule?
A: 0.477

Q: What about the relative viability (NCI-H1651; first compound 0.000632 µM) of the same molecule?
A: 0.443

Q: What about the relative viability (NCI-H1651; first compound 0.002 µM) of the same molecule?
A: 0.206

Q: And the relative viability (NCI-H1651; first compound 0.006325 µM)?
A: 0.095

Q: What about the relative viability (NCI-H1651; first compound 0.02 µM) of the same molecule?
A: 0.0784

Q: And the relative viability (NCI-H1666; first compound 0.0002 µM)?
A: 0.4

Q: And the relative viability (NCI-H1666; first compound 0.000632 µM)?
A: 0.431

Q: What about the relative viability (NCI-H1666; first compound 0.002 µM) of the same molecule?
A: 0.273

Q: What about the relative viability (NCI-H1666; first compound 0.006325 µM) of the same molecule?
A: 0.198

Q: What about the relative viability (NCI-H1666; first compound 0.02 µM) of the same molecule?
A: 0.169

Q: And the relative viability (NCI-H1944; first compound 0.0002 µM)?
A: 0.338

Q: What about the relative viability (NCI-H1944; first compound 0.000632 µM) of the same molecule?
A: 0.368

Q: What about the relative viability (NCI-H1944; first compound 0.002 µM) of the same molecule?
A: 0.318

Q: What about the relative viability (NCI-H1944; first compound 0.006325 µM) of the same molecule?
A: 0.322

Q: And the relative viability (NCI-H1944; first compound 0.02 µM)?
A: 0.178

Q: And the relative viability (NCI-H1975; first compound 0.0002 µM)?
A: 0.3

Q: And the relative viability (NCI-H1975; first compound 0.000632 µM)?
A: 0.261

Q: And the relative viability (NCI-H1975; first compound 0.002 µM)?
A: 0.213

Q: What about the relative viability (NCI-H1975; first compound 0.006325 µM) of the same molecule?
A: 0.156

Q: And the relative viability (NCI-H1975; first compound 0.02 µM)?
A: 0.121

Q: And the relative viability (NCI-H2087; first compound 0.0002 µM)?
A: 0.841

Q: What about the relative viability (NCI-H2087; first compound 0.000632 µM) of the same molecule?
A: 0.631

Q: What about the relative viability (NCI-H2087; first compound 0.002 µM) of the same molecule?
A: 0.284

Q: And the relative viability (NCI-H2087; first compound 0.006325 µM)?
A: 0.34

Q: And the relative viability (NCI-H2087; first compound 0.02 µM)?
A: 0.193

Q: What about the relative viability (NCI-H358; first compound 0.0002 µM) of the same molecule?
A: 0.321

Q: And the relative viability (NCI-H358; first compound 0.000632 µM)?
A: 0.34

Q: And the relative viability (NCI-H358; first compound 0.002 µM)?
A: 0.283

Q: And the relative viability (NCI-H358; first compound 0.02 µM)?
A: 0.157

Q: What about the relative viability (NCI-H596; first compound 0.0002 µM) of the same molecule?
A: 0.405

Q: What about the relative viability (NCI-H596; first compound 0.000632 µM) of the same molecule?
A: 0.252

Q: What about the relative viability (NCI-H596; first compound 0.002 µM) of the same molecule?
A: 0.452

Q: What about the relative viability (NCI-H596; first compound 0.006325 µM) of the same molecule?
A: 0.297

Q: And the relative viability (NCI-H596; first compound 0.02 µM)?
A: 0.256

Q: And the relative viability (NCI-H650; first compound 0.0002 µM)?
A: 0.75

Q: And the relative viability (NCI-H650; first compound 0.000632 µM)?
A: 0.48

Q: What about the relative viability (NCI-H650; first compound 0.002 µM) of the same molecule?
A: 0.313

Q: And the relative viability (NCI-H650; first compound 0.006325 µM)?
A: 0.274

Q: What about the relative viability (NCI-H650; first compound 0.02 µM) of the same molecule?
A: 0.207

Q: And the relative viability (NCI-H661; first compound 0.0002 µM)?
A: 0.356

Q: What about the relative viability (NCI-H661; first compound 0.000632 µM) of the same molecule?
A: 0.387

Q: And the relative viability (NCI-H661; first compound 0.002 µM)?
A: 0.341

Q: And the relative viability (NCI-H661; first compound 0.006325 µM)?
A: 0.296

Q: And the relative viability (NCI-H661; first compound 0.02 µM)?
A: 0.278

Q: And the relative viability (NCI-H838; first compound 0.0002 µM)?
A: 0.477

Q: And the relative viability (NCI-H838; first compound 0.000632 µM)?
A: 0.473

Q: What about the relative viability (NCI-H838; first compound 0.002 µM) of the same molecule?
A: 0.276

Q: What about the relative viability (NCI-H838; first compound 0.006325 µM) of the same molecule?
A: 0.149

Q: And the relative viability (NCI-H838; first compound 0.02 µM)?
A: 0.116

Q: And the relative viability (PC-3 [JPC-3]; first compound 0.0002 µM)?
A: 0.693

Q: And the relative viability (PC-3 [JPC-3]; first compound 0.000632 µM)?
A: 0.715

Q: What about the relative viability (PC-3 [JPC-3]; first compound 0.002 µM) of the same molecule?
A: 0.454

Q: What about the relative viability (PC-3 [JPC-3]; first compound 0.006325 µM) of the same molecule?
A: 0.329

Q: What about the relative viability (PC-3 [JPC-3]; first compound 0.02 µM) of the same molecule?
A: 0.229

Q: What about the relative viability (SK-MES-1; first compound 0.0002 µM) of the same molecule?
A: 0.303

Q: What about the relative viability (SK-MES-1; first compound 0.000632 µM) of the same molecule?
A: 0.34

Q: What about the relative viability (SK-MES-1; first compound 0.006325 µM) of the same molecule?
A: 0.206

Q: What about the relative viability (SK-MES-1; first compound 0.02 µM) of the same molecule?
A: 0.119
